Two compounds from patent US9597283B2, “Injectable depot formulation comprising optically active tolvaptan and process of producing the same” (OTSUKA PHARMACEUTICAL CO., LTD., priority 2012, dated 2017) can be followed below.

SMILES strings stand for the structures.

A short description of data set [1]: dissolution test of tolvaptan powders. It counts as physicochemical. The following applies: Test Example 3; crystal powders; 0.1 g in 500 mL polysorbate 80 / phosphate solution pH 7.4; sampling up to 48 hours; FIG. 5. On the procedure:
The dissolution test of each of the R- and S-tolvaptan SD powders of Examples 1 and 2, tolvaptan (racemic compound) SD powders of Comparative Examples 1 to 6, and tolvaptan (racemic compound) crystal powder of Comparative Example 7 was performed (FIGS. 2 to 4). In the dissolution test method, the R- and S-tolvaptan SD powders, tolvaptan (racemic compound) SD powders, and tolvaptan (racemic compound) crystal powder were weighed out in individual amounts of 0.1 g, and added to a solution (500 mL) for dissolution test shown in Table 2. None of the tolvaptans in an amount weighed above were dissolved in the solvent for dissolution test, and were fully suspended. Sequential sampling was performed 0.083, 0.167, 0.5, 1, 2, 4, 6, 8, 12, 24, 48, and 144 hours after addition.
The dissolution test of each of the R- and S-tolvaptan crystal powders was performed (FIG. 5). As a control, the result of Comparative Example 7 in Test Example 2 above was plotted. In the dissolution test method, an R-tolvaptan crystal powder (mean particle size: 34.0 μm) or an S-tolvaptan crystal powder (mean particle size: 35.8 μm) was weighed out in an amount of 0.1 g, and added to the solution for the dissolution test (500 mL) shown in Table 2 above. None of the tolvaptans in an amount weighed above were dissolved in the solution for dissolution test, and were fully suspended. […]

Data set [2] is described as follows: in vitro metabolic stability test, rat liver homogenate (S9 fraction). Type of data set: in vitro ADME. Conditions: 100 nM, sampling 5, 10, 30, 60 minutes, LC-MS/MS, FIG. 1 (2). On the procedure: (§1) Using human and rat liver homogenates (S9 fractions), the in vitro metabolic stability test of tolvaptan (racemic compound), R-tolvaptan, and S-tolvaptan was performed. The concentration of each evaluated compound was set to 100 nM, and the concentration sampling of each compound in a reaction mixture was conducted over time, i.e., 5, 10, 30, and 60 minutes after addition, and measured by LC-MS/MS (FIGS. 1 (1) and (2)).

The nature of data set [3]: in vitro metabolic stability test, human liver homogenate (S9 fraction). Type of data set: in vitro ADME. The following applies: 100 nM, sampling 5, 10, 30, 60 minutes, LC-MS/MS, FIG. 1 (1). As to the method:
as §1

In the case of `Cc1ccccc1C(=O)Nc1ccc(C(=O)N2CCC[C@@H](O)c3cc(Cl)ccc32)c(C)c1` [R-tolvaptan, R-(+)-7-chloro-5-hydroxy-1-[2-methyl-4-(2-methylbenzoylamino)benzoyl]-2,3,4,5-tetrahydro-1H-benzazepine], the dissolution amount entry in data set [1] was “slightly higher than that of the tolvaptan (racemic compound) crystal of Comparative Example 7, and remained fairly constant”. Further, the “in vitro metabolic stability (disappearance over time)” value in data set [2] is “disappeared slowly compared to tolvaptan (racemic compound) or S-tolvaptan, and had high metabolic stability”.

For the compound `Cc1ccccc1C(=O)Nc1ccc(C(=O)N2CCC[C@H](O)c3cc(Cl)ccc32)c(C)c1` [S-tolvaptan, S-(−)-7-chloro-5-hydroxy-1-[2-methyl-4-(2-methylbenzoylamino)benzoyl]-2,3,4,5-tetrahydro-1H-benzazepine], the dissolution amount result in data set [1] was “slightly higher than that of the tolvaptan (racemic compound) crystal of Comparative Example 7, and remained fairly constant”. Besides, the “in vitro metabolic stability (disappearance over time)” value in data set [3] is “disappeared slowly compared to tolvaptan (racemic compound) or R-tolvaptan, and had high metabolic stability”.
